pIC50: −log10 of the molar value.

Assay [1] relates to Plasmodium falciparum. As to the kind of experiment: MMV: Measure of pLDH activity as indication of parasite viability. Gametocytogenesis of 3D7 Plasmodium falciparum strain was induced in vitro and asexual parasites were depleted with N-acetylglucosamine. Gametocytes were treated with dihydroartemisinin, epoxomicin, methylene blue, primaquine, puromycin or chloroquine in 96-well plates and the pLDH activity was evaluated using a modified Makler protocol. Mosquito infectivity was measured by the standard membrane feeding assay. It is filed as functional. More on the design: concentration or dose not given beside the values.

Assay [2] concerns Plasmodium falciparum. As to the kind of experiment: MMV: Measure of pLDH activity as indication of parasite viability. Gametocytogenesis of 3D7 Plasmodium falciparum strain was induced in vitro and asexual parasites were depleted with N-acetylglucosamine. Gametocytes were treated with dihydroartemisinin, epoxomicin, methylene blue, primaquine, puromycin or chloroquine in 96-well plates and the pLDH activity was evaluated using a modified Makler protocol. Mosquito infectivity was measured by the standard membrane feeding assay. The IC50 value was extrapolated as the concentration that induced a 50% inhibition of gametocyte viability. The format is functional, organism-based.

Consider `OC(CNC1CCCCC1)Cn1c2ccc(I)cc2c2cc(I)ccc21` (stereo not drawn), for which, in assay [1], the “Growth Inhibition” value was determined as 78.0014%. Further, in assay [2], the pIC50 was 6.12.

Take `COc1cccc(NC(=O)[C@H](C(C)C)n2c(=O)[nH]c3ccccc3c2=O)c1`: the “Growth Inhibition” value in assay [1] came to 63.4258%. The pIC50 in assay [2] was 5.56.

`CC(C)(C)CC(C)(C)NCC(O)COc1ccc(Cl)cc1Cl` (stereo not drawn): the “Growth Inhibition” value in assay [1] came to 54.9615%. In addition, the pIC50 in assay [2] is 5.25.

With `Cl.Clc1cc(Br)ccc1-c1ccc(CNCC2CCNCC2)o1`, in assay [1], the “Growth Inhibition” value is recorded as 86.2708%. In addition, in assay [2], the pIC50 is 6.39.

With `CC(C)OCc1cc(CN2CCN(c3cccc(Cl)c3)CC2)c(O)c2ncccc12`, the “Growth Inhibition” value in assay [1] is recorded as 56.857%. The pIC50 in assay [2] was 5.48.

`COc1cccc(C(=O)NC(c2ccc(C)cc2)c2cc(Cl)c3cccnc3c2O)c1` (stereo not drawn): in assay [1], the “Growth Inhibition” value worked out at 50.8652%. In assay [2], the pIC50 is 5.51.

For the molecule `CN(C)c1ccc(N=Cc2ccc(N3CCOCC3)cc2)cc1`, the “Growth Inhibition” value in assay [1] turned out to be 78.9978%. Also, the negative logarithm of the IC50 (pIC50) in assay [2] was 5.38.

Take `COc1cc(C(=O)ON=C(N)Cc2cccc3ccccc23)cc(OC)c1OC`: the “Growth Inhibition” value in assay [1] came out at 60.0732%. In addition, in assay [2], the pIC50 was 5.39.

In the case of `Cl.N=c1n(CCN2CCCCC2)c2ccccc2n1CC(O)c1cccc(Br)c1` (stereo not drawn), the “Growth Inhibition” value in assay [1] was determined as 59.1366%. Also, in assay [2], the pIC50 was 5.41.

Turning to `COc1ccc(C2c3ccc4ccccc4c3Oc3ncn(CCCN(C)C)c(=N)c32)cc1` (stereo not drawn), the “Growth Inhibition” value in assay [1] was determined as 88.163%. In addition, in assay [2], the pIC50 was 6.16.

On to `CC(C)CCNCC(O)Cn1c2ccccc2c2ccccc21.Cl` (stereo not drawn), for which the “Growth Inhibition” value in assay [1] came out at 62.6796%. Also, the pIC50 in assay [2] is 5.55.

With `COc1ccc(C(=O)C(CCC(CNC(C)(C)C)C(=O)c2ccc(OC)cc2)CNC(C)(C)C)cc1` (stereo not drawn), the “Growth Inhibition” value in assay [1] was 56.45%. The pIC50 in assay [2] is 5.49.

For the molecule `Cc1ccc(Nc2nc(-c3ccccn3)cs2)cc1`, in assay [1], the “Growth Inhibition” value is on record as 62.3104%. In addition, the pIC50 in assay [2] is 5.86.

Consider `COc1ccc(C2NCCc3c2[nH]c2ccccc32)cc1CN1CCN(c2ccc(F)cc2)CC1.Cl` (stereo not drawn), for which the “Growth Inhibition” value in assay [1] was determined as 75.07%. In addition, the pIC50 in assay [2] was 5.47.

Regarding `Cl.c1ccc2c(NCCCCCCNc3c4c(nc5ccccc35)CCCC4)c3c(nc2c1)CCCC3`, in assay [1], the “Growth Inhibition” value is listed as 77.595%. Further, the pIC50 in assay [2] is 5.62.

As to `CN(C)CCCNc1c2ccccc2nc2ccccc12`, in assay [1], the “Growth Inhibition” value was 9.2618%. In assay [2], the pIC50 was 5.50.

As for `COc1ccc(-c2cc3c(nn2)-c2ccccc2C3=O)cc1`, in assay [1], the “Growth Inhibition” value is recorded as 49.5345%. Further, the pIC50 in assay [2] is 5.30.

Take `CCCOCc1cc(CN2CCN(c3cccc(Cl)c3)CC2)c(O)c2ncccc12`: the “Growth Inhibition” value in assay [1] is 80.5%. The pIC50 in assay [2] is 5.42.

In the case of `O=C(NC(c1ccccc1)c1ccc2cccnc2c1O)c1ccccc1` (stereo not drawn), the “Growth Inhibition” value in assay [1] was 59.5194%. For the same molecule, in assay [2], the pIC50 is 5.58.

Consider `CC1CC2=C(CC1CNCCCN(C)C)C(C)(C)CCC2` (stereo not drawn), for which, in assay [1], the “Growth Inhibition” value came to 91.9455%. Also, the pIC50 in assay [2] was 6.24.

As for `COc1ccc(C(=O)NC(c2ccc(Cl)cc2Cl)c2cc(Cl)c3cccnc3c2O)cc1` (stereo not drawn), in assay [1], the “Growth Inhibition” value amounted to 50.4754%. The pIC50 in assay [2] was 5.42.

As for `CN(C)CCCNCc1ccc(-c2ccc(F)c(Cl)c2)o1.Cl`, the “Growth Inhibition” value in assay [1] was found to be 63.9166%. Further, in assay [2], the pIC50 is 5.66.

Consider `CSc1ccccc1C(=O)Nc1nc(-c2ccccn2)cs1`, for which the “Growth Inhibition” value in assay [1] was 29.8315%. The pIC50 in assay [2] was 5.34.

On to `Cc1cc(C)c2nc(N3CCC(C(=O)NCCCN4CCC(N5CCCCC5)CC4)CC3)sc2c1`, for which the “Growth Inhibition” value in assay [1] was determined as 59.2216%. Besides, the pIC50 in assay [2] is 5.71.

(Values after ChEMBL document CHEMBL3301555, “MMV Malaria Box screening in pLDH viability assay against Plasmodium falciparum gametocytes”.)
